# Measured values: patent US20230303549A1, “SUBSTITUTED HETEROARYLOXYPYRIDINES, THE SALTS THEREOF AND THEIR USE AS HERBICIDAL AGENTS” (Bayer Aktiengesellschaft, priority 2020, published 2023)
# Assays:
# Format in all cases: in vivo
# [1] = tested on: Alopecurus myosuroides (ALOMY); experiment: Post-emergence herbicidal efficacy at 320 g/ha, greenhouse pot test; settings: visual rating vs untreated control after about 3 weeks
# Outline: (§1)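 Post-emergence foliar spray on one-leaf-stage weeds, 2 to 3 weeks from sowing, using WP or EC preparations with 0.5% additive. Damage was judged by eye after roughly 3 weeks compared with untreated controls.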
# [2] = tested on: Amaranthus retroflexus (AMARE); experiment: as above; settings: visual rating vs untreated control after about 3 weeks
# Outline: as §1
# [3] = tested on: Bassia scoparia (KCHSC); experiment: as above; settings: visual rating vs untreated control after about 3 weeks
# Outline: as §1
# [4] = tested on: Digitaria sanguinalis (DIGSA); experiment: as above; settings: visual rating vs untreated control after about 3 weeks
# Outline: as §1
# [5] = tested on: Stellaria media (STEME); experiment: as above; settings: visual rating vs untreated control after about 3 weeks
# Outline: as §1
# [6] = tested on: Veronica persica (VERPE); experiment: as above; settings: 320 g/ha, visual rating vs untreated control after about 3 weeks
# Outline: as §1
# [7] = tested on: Alopecurus myosuroides (ALOMY); experiment: Post-emergence herbicidal efficacy at 80 g/ha, greenhouse pot test; settings: visual rating vs untreated control after about 3 weeks
# Description: (§2) Seeds of monocotyledonous and dicotyledonous weeds and crop plants were placed in sandy loam in plastic or organic planting pots, covered with soil and cultivated in a greenhouse under controlled growth conditions. 2 to 3 weeks after sowing, the test plants were treated at the one-leaf stage. The compounds of the invention, formulated in the form of wettable powders (WP) or as emulsion concentrates (EC), were then sprayed onto the green parts of the plants as aqueous suspension or emulsion with addition of 0.5% additive at a water application rate of 600 l/ha (converted). After the test plants had been kept in the greenhouse under optimum growth conditions for about 3 weeks, the activity of the preparations was rated visually in comparison to untreated controls. For example, 100% activity=the plants have died, 0% activity=like control plants. Tables B1 to B6 below show the effects of selected compounds of the general formula (I) according to Table 1 on various harmful plants and an application rate corresponding to 80 g/ha, which were obtained by the experimental procedure mentioned above.
# [8] = tested on: Amaranthus retroflexus (AMARE); experiment: as above; settings: visual rating vs untreated control after about 3 weeks
# Description: as §2
# [9] = tested on: Viola tricolor (VIOTR); experiment: as above; settings: visual rating vs untreated control after about 3 weeks
# Description: as §2
# [10] = tested on: Abutilon theophrasti (ABUTH); experiment: Pre-emergence herbicide efficacy at 320 g/ha, greenhouse pot test; settings: visual scoring vs untreated control after about 3 weeks
# Outline: (§3)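 Seeds sown in sandy loam, covered, and compound (WP or EC) sprayed onto soil surface with 0.5% additive at 600 L/ha water. Pots kept in greenhouse; efficacy scored visually after about 3 weeks as % versus untreated control (100% = plants dead).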
# [11] = tested on: Alopecurus myosuroides (ALOMY); experiment: as above; settings: visual scoring vs untreated control after about 3 weeks
# Outline: as §3
# [12] = tested on: Amaranthus retroflexus (AMARE); experiment: as above; settings: visual scoring vs untreated control after about 3 weeks
# Outline: as §3
# [13] = tested on: Bassia scoparia (KCHSC); experiment: as above; settings: 320 g/ha, visual scoring vs untreated control after about 3 weeks
# Outline: as §3
# [14] = tested on: Digitaria sanguinalis (DIGSA); experiment: as above; settings: visual scoring vs untreated control after about 3 weeks
# Outline: as §3
# [15] = tested on: Echinochloa crus-galli (ECHCG); experiment: as above; settings: visual scoring vs untreated control after about 3 weeks
# Outline: as §3
# [16] = tested on: Matricaria inodora (MATIN); experiment: as above; settings: visual scoring vs untreated control after about 3 weeks
# Outline: as §3
# [17] = tested on: Poa annua (POAAN); experiment: as above; settings: visual scoring vs untreated control after about 3 weeks
# Outline: as §3
# [18] = tested on: Setaria viridis (SETVI); experiment: as above; settings: visual scoring vs untreated control after about 3 weeks
# Outline: as §3
# [19] = tested on: Stellaria media (STEME); experiment: as above; settings: visual scoring vs untreated control after about 3 weeks
# Outline: as §3
# [20] = tested on: Veronica persica (VERPE); experiment: as above; settings: visual scoring vs untreated control after about 3 weeks
# Outline: as §3
# [21] = tested on: Abutilon theophrasti (ABUTH); experiment: Pre-emergence herbicide efficacy at 80 g/ha, greenhouse pot test; settings: visual scoring vs untreated control after about 3 weeks
# Text: (§4) Seeds of monocotyledonous and dicotyledonous weed plants and crop plants were placed in plastic or organic planting pots and covered with soil. The compounds of the invention, formulated in the form of wettable powders (WP) or as emulsion concentrates (EC), were then applied to the surface of the covering soil as aqueous suspension or emulsion with addition of 0.5% additive at a water application rate of […] (converted). After the treatment, the pots were placed in a greenhouse and kept under good growth conditions for the test plants. After about 3 weeks, the effect of the preparations was scored visually in comparison with untreated controls as percentages. For example, 100% activity=the plants have died, 0% activity=like control plants. Tables D1 to D12 below show the effects of selected compounds of the general formula (I) according to Table 1 on various harmful plants and an application rate corresponding to 80 g/ha, which were obtained by the experimental procedure mentioned above.
# [22] = tested on: Alopecurus myosuroides (ALOMY); experiment: as above; settings: visual scoring vs untreated control after about 3 weeks
# Text: as §4
# [23] = tested on: Amaranthus retroflexus (AMARE); experiment: as above; settings: visual scoring vs untreated control after about 3 weeks
# Text: as §4
# [24] = tested on: Matricaria inodora (MATIN); experiment: as above; settings: visual scoring vs untreated control after about 3 weeks
# Text: as §4
# [25] = tested on: Polygonum convolvulus (POLCO); experiment: as above; settings: visual scoring vs untreated control after about 3 weeks
# Text: as §4
# [26] = tested on: Setaria viridis (SETVI); experiment: as above; settings: visual scoring vs untreated control after about 3 weeks
# Text: as §4
# [27] = tested on: Veronica persica (VERPE); experiment: as above; settings: visual scoring vs untreated control after about 3 weeks
# Text: as §4
# [28] = tested on: Viola tricolor (VIOTR); experiment: as above; settings: visual scoring vs untreated control after about 3 weeks
# Text: as §4
# [29] = tested on: Poa annua (POAAN); experiment: Post-emergence herbicidal efficacy at 320 g/ha, greenhouse pot test; settings: visual rating vs untreated control after about 3 weeks
# Outline: as §1
# [30] = tested on: Lolium rigidum (LOLRI); experiment: Pre-emergence herbicide efficacy at 320 g/ha, greenhouse pot test; settings: visual scoring vs untreated control after about 3 weeks
# Outline: as §3
# [31] = tested on: Digitaria sanguinalis (DIGSA); experiment: Pre-emergence herbicide efficacy at 80 g/ha, greenhouse pot test; settings: visual scoring vs untreated control after about 3 weeks
# Text: as §4
SMILES,Post-emergence efficacy against Digitaria sanguinalis (DIGSA) [4] [%],Post-emergence efficacy against Veronica persica (VERPE) [6] [%],Post-emergence efficacy against Alopecurus myosuroides (ALOMY) [7] [%],Post-emergence efficacy against Viola tricolor (VIOTR) [9] [%],Pre-emergence efficacy against Abutilon theophrasti (ABUTH) [10] [%],Pre-emergence efficacy against Amaranthus retroflexus (AMARE) [12] [%],Pre-emergence efficacy against Bassia scoparia (KCHSC) [13] [%],Pre-emergence efficacy against Digitaria sanguinalis (DIGSA) [14] [%],Pre-emergence efficacy against Echinochloa crus-galli (ECHCG) [15] [%],Pre-emergence efficacy against Matricaria inodora (MATIN) [16] [%],Pre-emergence efficacy against Poa annua (POAAN) [17] [%],Pre-emergence efficacy against Setaria viridis (SETVI) [18] [%],Pre-emergence efficacy against Stellaria media (STEME) [19] [%],Pre-emergence efficacy against Veronica persica (VERPE) [20] [%],Pre-emergence efficacy against Abutilon theophrasti (ABUTH) [21] [%],Pre-emergence efficacy against Amaranthus retroflexus (AMARE) [23] [%],Pre-emergence efficacy against Matricaria inodora (MATIN) [24] [%],Pre-emergence efficacy against Polygonum convolvulus (POLCO) [25] [%],Pre-emergence efficacy against Viola tricolor (VIOTR) [28] [%],other results
Cc1cc(C)c(-c2cc(C(F)Cl)no2)c(Oc2ncc(Cl)cn2)n1 (centres unmarked) [Example I-5],90,100,80,80,100,100,100,100,90,100,100,100,100,90,90,100,90,90,90,Post-emergence efficacy against Alopecurus myosuroides (ALOMY) [1]: 100%; Post-emergence efficacy against Amaranthus retroflexus (AMARE) [2]: 100%; Post-emergence efficacy against Bassia scoparia (KCHSC) [3]: 90%; Post-emergence action against Stellaria media (STEME) [5]: 90%; Post-emergence efficacy against Amaranthus retroflexus (AMARE) [8]: 100%; Pre-emergence efficacy against Alopecurus myosuroides (ALOMY) [11]: 100%; Pre-emergence efficacy against Alopecurus myosuroides (ALOMY) [22]: 90%; Pre-emergence efficacy against Setaria viridis (SETVI) [26]: 90%; Pre-emergence efficacy against Veronica persica (VERPE) [27]: 90%
Cc1cc(C)c(-c2cc(C(F)F)on2)c(Oc2ncc(Cl)cn2)n1 [Example I-10],100,90,80,100,100,100,90,90,100,100,90,90,100,100,90,90,90,90,100,Post-emergence efficacy against Poa annua (POAAN) [29]: 100%; Pre-emergence efficacy against Lolium rigidum (LOLRI) [30]: 90%; Pre-emergence efficacy against Digitaria sanguinalis (DIGSA) [31]: 90%
